According to patent US11628202B2, “Methods of reducing the need for surgery in patients suffering from benign prostatic hyperplasia” (Nymox Corporation, priority 2015, dated 2023):

Test system: patients with moderate to severe symptomatic benign prostatic hyperplasia (BPH)
Assay: Prospective assessment of need for subsequent invasive surgical intervention in BPH patients after NX-1207 injection
Assay type: in vivo, human
Description: 645 patients (Group #1) with moderate to severe symptomatic benign prostatic hyperplasia (BPH) were prospectively randomly assigned to blinded treatment with a single therapeutic injection of NX-1207 or placebo (saline vehicle alone), and their clinical BPH signs and symptoms were assessed at weekly, monthly, 3-monthly or longer intervals, for durations of a few months to 5.5 years. None of these patients had received any prior invasive surgical procedures to treat their BPH condition. A prospective assessment was undertaken of all available subjects>=2 years after baseline to determine the usefulness of NX-1207 treatment for the prevention or the delay of the need for surgical procedures (i.e., subsequent invasive surgical intervention) to treat the patient's BPH condition. Patients who received placebo and no drug treatment progressed to invasive surgical procedures within 2 years of baseline in 7.65% of patients.
352 patients (Group #2) who were randomized and blindly treated with NX-1207 or placebo at the same time as Group #1 in Example 1, in addition to the initial treatment, were given a second treatment injection of NX-1207 at intervals of >=1 year after the initial randomization. None of these patients had received any prior invasive surgical procedures to treat their BPH condition. A prospective assessment was undertaken of all available subjects>=2 years after baseline to determine the usefulness of NX-1207 treatment for the prevention or the delay of the need for invasive surgical intervention to treat the patient's BPH condition.
Patients in Examples 1 and 2 were characterized as to whether they had previous treatment failures with conventional oral medications (i.e. “treatment failure”) vs whether they had not received any previous conventional oral medications for their BPH condition (i.e., “treatment naïve”). A prospective assessment was undertaken of all available subjects>=2 years after baseline to determine the usefulness of NX-1207 treatment for the prevention or the delay of the need for subsequent invasive surgical intervention to treat the patient's BPH condition.
In the above examples, the amount of NX-1207 administered was 2.5 mg.

IDQQVLSRIKLEIKRCL [NX-1207, NTP peptide injected once or twice (2.5 mg) in BPH patients]
improvement in reducing the need for subsequent invasive surgical intervention, compared to patients who received a single injection (administered twice): ~69% | improvement in reducing the need for subsequent invasive surgical intervention, compared to patients who received the placebo (administered twice): ~80% | need for subsequent invasive surgical intervention (previous treatment failure subjects, assessed >=2 years after baseline, treatment failure placebo 10.4%): 6.1% | rate of need for invasive surgical procedures (second injection >=1 year after initial randomization, assessed >=2 years after baseline, p<0.001 vs placebo 7.65%, p<0.01 vs single injection 5.1%): 1.6% | reduced rate of invasive surgical procedures within 2 years, compared to placebo (single therapeutic injection, 2.5 mg): 33.3% | patients progressed to invasive surgical procedures within 2 years of baseline (single therapeutic injection, 2.5 mg, BPH patients, no prior invasive surgery, placebo 7.65%): 5.1% | improvement in reducing the need for subsequent invasive surgical intervention, compared to patients who received the placebo (treatment naive patients): ~88% | improvement in reducing the need for subsequent invasive surgical intervention, compared to treatment failure patients who received the NTP peptide (treatment naive patients): ~85% | improvement in reducing the need for subsequent invasive surgical intervention, compared to treatment failure patients who received the placebo (treatment naive patients): ~91% | need for invasive surgical procedures (treatment naïve patients, assessed >=2 years after baseline, placebo controls 7.5%, p<0.01): 0.9%
